In US20050049198A1, “Method of modulating the activity of calcium channels in cardiac cells and reagents therefor” (priority 2001, published 2005):
Entries after “also recorded” stand apart in the source; their conditions may differ. Where no end group is shown, it is not given here. [ ]: non-standard residue; d: D form.

Columns and labels:
cardiac RyR2 channel = test: Single channel activity of cardiac RyR2 channels in lipid bilayers; format: biochemical, sheep; settings: for effect on cardiac RyR2 channel activity: cis 10^−7M Ca2+
Method: SR vesicles were isolated from sheep heart as described by Layer et al. (1995, J. Membr. Biol. 147:7-22).
Experiments were carried out at 20° C. to 25° C., essentially according to Ahern et al. (1994, FEBS Lett. 352:369-374) and Layer et al. (1995, J. Membr. Biol. 147:7-22). Bilayers were formed from phosphatidylethanolamine, phosphatidylserine and phosphatidylcholine (5:3:2 w/w/w) (Avanti Polar Lipids, Alabaster, Ala.) across an aperture with a diameter of […] in the wall of a 1.0 ml Delrin cup (Cadillac Plastics, Australia). Terminal cisternae (TC) vesicles (final concentration, 10 μg/ml) and drugs were added to the cytoplasmic (i.e. cis) chamber. The bilayer potential was controlled, and single channel activity recorded, using an Axopatch 200A amplifier (Axon Instruments, Foster City, Calif.). For experimental purposes, the cis chamber was held at ground and the voltage of the lumen (i.e. trans) chamber controlled. Bilayer potential is expressed in the conventional way as Vcis−Vtrans, (i.e. Vcytoplasm−Vlumen).
Bilayers were formed as described above and vesicles were incorporated into the bilayer using a cis solution containing 230 mM Cs methanesulphonate (MS), 20 mM CsCl, 1 mM CaCl2 and 10 mM N-tris[hydroxymethyl]methyl-2-aminoethanesulfonic acid (TES, pH 7.4 with CsOH), and a trans solution containing 30 mM Cs MS, 20 mM CsCl, 1 mM CaCl2 and 10 mM TES (pH7.4).
To prevent incorporation of multiple channels into the bilayer, the cis solution was replaced by perfusion of the cis chamber when channel activity was observed. The cis perfusion solution was identical to the initial cis solution, except that the [Ca^2+] was 3×10^−7M, buffered using 1 mM BAPTA. CsMS (200 mM) was added to the trans chamber following channel incorporation to produce symmetrical solutions.
Bilayer potential was changed every 30 s, over 2 min following each addition of peptide to the cis chamber. Control activity was recorded for 2 min after addition of 200 mM CsMS to the trans chamber. Activity was then recorded for 2 min after cis addition of each aliquot of peptide (six different peptide concentrations were examined in each channel). Peptides were perfused out of the cis chamber, and the recovery recorded. Channels were finally exposed to 30 μM ruthenium red.
Currents were filtered at 1 kHz (8-pole low pass Bessel, −3 dB) and digitized at 5 kHz. Analysis of single channel records (using Channel 2, developed by P W Gage and M Smith) yielded channel open probability (Po), frequency of events (Fo), open times, closed times and mean open or closed times (To or Tc) as well as mean current (I′). The event discriminator was set above the baseline noise at ˜20% of the maximum current, rather than the usual 50%, and so openings to both sub conductance and maximum conductance levels were included in the analysis. Channel activity was analyzed over two 30 s periods of continuous activity at +40 mV and two 30 s periods of continuous activity at −40 mV.
The Ca^2+ concentration in the cis solution was either buffered at 100 nM or was adjusted to 100 μM by adding an CaCl2 to the cis solution in the absence of BAPTA.

[1] = test system: RyR channels of cardiac SR vesicles; test: Ca2+ release from cardiac SR vesicles; format: biochemical, sheep; settings: for initial rate of Ca2+ release, peptide alone: 30 μM and 50 μM peptide, no additional activating factors; for Ca2+-activated Ca2+ release / caffeine-activated Ca2+ release: 20 μM Ca2+ or 2 mM caffeine plus peptide; for rate of Ca2+ release in the absence of activating Ca2+ or caffeine: high concentrations of >30 μM peptide
Method: Extravesicular [Ca^2+] was monitored at 710 nm using either a Cary 50 or Cary 100 spectrophotometer. […] Vesicles were loaded with Ca^2+ by 4 additions of 3 μl aliquots of 5 mM CaCl2, to a final concentration of 7.5 μM Ca^2+. Thapsigargin (200 nM) was then added to block the SR Ca^2+ ATPase. Finally the peptides were added either alone, or with 20 μM Ca^2+ or 2 mM caffeine. The rate of Ca^2+ release in the presence of thapsigargin was measured just before addition of the activating agents and initial rates of Ca^2+ release were measured immediately after addition of the activating agents. The specific blocker of RyR activity, […] ruthenium red, was then added to confirm that Ca^2+ release was through RyR channels. The Ca^+ ionophore A23187 (3 μg/ml) was added at the end of the experiment to determine the amount of Ca^2+ remaining in the SR vesicles. When Ca^2+ release was complete, the Ca^2+ transient following addition of the ionophore, was indicative of the fraction of vesicles containing Ca^2+ that could not be released through RyR channel (presumably vesicles from longitudinal SR that lack RyR channels). […] Experiments were repeated on vesicles isolated from 3 different sheep heart preparations.

cardiac RyR2 channels = cardiac RyR2 channels (Homo sapiens, UniProt Q92736); settings: cited from earlier work
Chain of cardiac RyR2 channels (Q92736 whole entry): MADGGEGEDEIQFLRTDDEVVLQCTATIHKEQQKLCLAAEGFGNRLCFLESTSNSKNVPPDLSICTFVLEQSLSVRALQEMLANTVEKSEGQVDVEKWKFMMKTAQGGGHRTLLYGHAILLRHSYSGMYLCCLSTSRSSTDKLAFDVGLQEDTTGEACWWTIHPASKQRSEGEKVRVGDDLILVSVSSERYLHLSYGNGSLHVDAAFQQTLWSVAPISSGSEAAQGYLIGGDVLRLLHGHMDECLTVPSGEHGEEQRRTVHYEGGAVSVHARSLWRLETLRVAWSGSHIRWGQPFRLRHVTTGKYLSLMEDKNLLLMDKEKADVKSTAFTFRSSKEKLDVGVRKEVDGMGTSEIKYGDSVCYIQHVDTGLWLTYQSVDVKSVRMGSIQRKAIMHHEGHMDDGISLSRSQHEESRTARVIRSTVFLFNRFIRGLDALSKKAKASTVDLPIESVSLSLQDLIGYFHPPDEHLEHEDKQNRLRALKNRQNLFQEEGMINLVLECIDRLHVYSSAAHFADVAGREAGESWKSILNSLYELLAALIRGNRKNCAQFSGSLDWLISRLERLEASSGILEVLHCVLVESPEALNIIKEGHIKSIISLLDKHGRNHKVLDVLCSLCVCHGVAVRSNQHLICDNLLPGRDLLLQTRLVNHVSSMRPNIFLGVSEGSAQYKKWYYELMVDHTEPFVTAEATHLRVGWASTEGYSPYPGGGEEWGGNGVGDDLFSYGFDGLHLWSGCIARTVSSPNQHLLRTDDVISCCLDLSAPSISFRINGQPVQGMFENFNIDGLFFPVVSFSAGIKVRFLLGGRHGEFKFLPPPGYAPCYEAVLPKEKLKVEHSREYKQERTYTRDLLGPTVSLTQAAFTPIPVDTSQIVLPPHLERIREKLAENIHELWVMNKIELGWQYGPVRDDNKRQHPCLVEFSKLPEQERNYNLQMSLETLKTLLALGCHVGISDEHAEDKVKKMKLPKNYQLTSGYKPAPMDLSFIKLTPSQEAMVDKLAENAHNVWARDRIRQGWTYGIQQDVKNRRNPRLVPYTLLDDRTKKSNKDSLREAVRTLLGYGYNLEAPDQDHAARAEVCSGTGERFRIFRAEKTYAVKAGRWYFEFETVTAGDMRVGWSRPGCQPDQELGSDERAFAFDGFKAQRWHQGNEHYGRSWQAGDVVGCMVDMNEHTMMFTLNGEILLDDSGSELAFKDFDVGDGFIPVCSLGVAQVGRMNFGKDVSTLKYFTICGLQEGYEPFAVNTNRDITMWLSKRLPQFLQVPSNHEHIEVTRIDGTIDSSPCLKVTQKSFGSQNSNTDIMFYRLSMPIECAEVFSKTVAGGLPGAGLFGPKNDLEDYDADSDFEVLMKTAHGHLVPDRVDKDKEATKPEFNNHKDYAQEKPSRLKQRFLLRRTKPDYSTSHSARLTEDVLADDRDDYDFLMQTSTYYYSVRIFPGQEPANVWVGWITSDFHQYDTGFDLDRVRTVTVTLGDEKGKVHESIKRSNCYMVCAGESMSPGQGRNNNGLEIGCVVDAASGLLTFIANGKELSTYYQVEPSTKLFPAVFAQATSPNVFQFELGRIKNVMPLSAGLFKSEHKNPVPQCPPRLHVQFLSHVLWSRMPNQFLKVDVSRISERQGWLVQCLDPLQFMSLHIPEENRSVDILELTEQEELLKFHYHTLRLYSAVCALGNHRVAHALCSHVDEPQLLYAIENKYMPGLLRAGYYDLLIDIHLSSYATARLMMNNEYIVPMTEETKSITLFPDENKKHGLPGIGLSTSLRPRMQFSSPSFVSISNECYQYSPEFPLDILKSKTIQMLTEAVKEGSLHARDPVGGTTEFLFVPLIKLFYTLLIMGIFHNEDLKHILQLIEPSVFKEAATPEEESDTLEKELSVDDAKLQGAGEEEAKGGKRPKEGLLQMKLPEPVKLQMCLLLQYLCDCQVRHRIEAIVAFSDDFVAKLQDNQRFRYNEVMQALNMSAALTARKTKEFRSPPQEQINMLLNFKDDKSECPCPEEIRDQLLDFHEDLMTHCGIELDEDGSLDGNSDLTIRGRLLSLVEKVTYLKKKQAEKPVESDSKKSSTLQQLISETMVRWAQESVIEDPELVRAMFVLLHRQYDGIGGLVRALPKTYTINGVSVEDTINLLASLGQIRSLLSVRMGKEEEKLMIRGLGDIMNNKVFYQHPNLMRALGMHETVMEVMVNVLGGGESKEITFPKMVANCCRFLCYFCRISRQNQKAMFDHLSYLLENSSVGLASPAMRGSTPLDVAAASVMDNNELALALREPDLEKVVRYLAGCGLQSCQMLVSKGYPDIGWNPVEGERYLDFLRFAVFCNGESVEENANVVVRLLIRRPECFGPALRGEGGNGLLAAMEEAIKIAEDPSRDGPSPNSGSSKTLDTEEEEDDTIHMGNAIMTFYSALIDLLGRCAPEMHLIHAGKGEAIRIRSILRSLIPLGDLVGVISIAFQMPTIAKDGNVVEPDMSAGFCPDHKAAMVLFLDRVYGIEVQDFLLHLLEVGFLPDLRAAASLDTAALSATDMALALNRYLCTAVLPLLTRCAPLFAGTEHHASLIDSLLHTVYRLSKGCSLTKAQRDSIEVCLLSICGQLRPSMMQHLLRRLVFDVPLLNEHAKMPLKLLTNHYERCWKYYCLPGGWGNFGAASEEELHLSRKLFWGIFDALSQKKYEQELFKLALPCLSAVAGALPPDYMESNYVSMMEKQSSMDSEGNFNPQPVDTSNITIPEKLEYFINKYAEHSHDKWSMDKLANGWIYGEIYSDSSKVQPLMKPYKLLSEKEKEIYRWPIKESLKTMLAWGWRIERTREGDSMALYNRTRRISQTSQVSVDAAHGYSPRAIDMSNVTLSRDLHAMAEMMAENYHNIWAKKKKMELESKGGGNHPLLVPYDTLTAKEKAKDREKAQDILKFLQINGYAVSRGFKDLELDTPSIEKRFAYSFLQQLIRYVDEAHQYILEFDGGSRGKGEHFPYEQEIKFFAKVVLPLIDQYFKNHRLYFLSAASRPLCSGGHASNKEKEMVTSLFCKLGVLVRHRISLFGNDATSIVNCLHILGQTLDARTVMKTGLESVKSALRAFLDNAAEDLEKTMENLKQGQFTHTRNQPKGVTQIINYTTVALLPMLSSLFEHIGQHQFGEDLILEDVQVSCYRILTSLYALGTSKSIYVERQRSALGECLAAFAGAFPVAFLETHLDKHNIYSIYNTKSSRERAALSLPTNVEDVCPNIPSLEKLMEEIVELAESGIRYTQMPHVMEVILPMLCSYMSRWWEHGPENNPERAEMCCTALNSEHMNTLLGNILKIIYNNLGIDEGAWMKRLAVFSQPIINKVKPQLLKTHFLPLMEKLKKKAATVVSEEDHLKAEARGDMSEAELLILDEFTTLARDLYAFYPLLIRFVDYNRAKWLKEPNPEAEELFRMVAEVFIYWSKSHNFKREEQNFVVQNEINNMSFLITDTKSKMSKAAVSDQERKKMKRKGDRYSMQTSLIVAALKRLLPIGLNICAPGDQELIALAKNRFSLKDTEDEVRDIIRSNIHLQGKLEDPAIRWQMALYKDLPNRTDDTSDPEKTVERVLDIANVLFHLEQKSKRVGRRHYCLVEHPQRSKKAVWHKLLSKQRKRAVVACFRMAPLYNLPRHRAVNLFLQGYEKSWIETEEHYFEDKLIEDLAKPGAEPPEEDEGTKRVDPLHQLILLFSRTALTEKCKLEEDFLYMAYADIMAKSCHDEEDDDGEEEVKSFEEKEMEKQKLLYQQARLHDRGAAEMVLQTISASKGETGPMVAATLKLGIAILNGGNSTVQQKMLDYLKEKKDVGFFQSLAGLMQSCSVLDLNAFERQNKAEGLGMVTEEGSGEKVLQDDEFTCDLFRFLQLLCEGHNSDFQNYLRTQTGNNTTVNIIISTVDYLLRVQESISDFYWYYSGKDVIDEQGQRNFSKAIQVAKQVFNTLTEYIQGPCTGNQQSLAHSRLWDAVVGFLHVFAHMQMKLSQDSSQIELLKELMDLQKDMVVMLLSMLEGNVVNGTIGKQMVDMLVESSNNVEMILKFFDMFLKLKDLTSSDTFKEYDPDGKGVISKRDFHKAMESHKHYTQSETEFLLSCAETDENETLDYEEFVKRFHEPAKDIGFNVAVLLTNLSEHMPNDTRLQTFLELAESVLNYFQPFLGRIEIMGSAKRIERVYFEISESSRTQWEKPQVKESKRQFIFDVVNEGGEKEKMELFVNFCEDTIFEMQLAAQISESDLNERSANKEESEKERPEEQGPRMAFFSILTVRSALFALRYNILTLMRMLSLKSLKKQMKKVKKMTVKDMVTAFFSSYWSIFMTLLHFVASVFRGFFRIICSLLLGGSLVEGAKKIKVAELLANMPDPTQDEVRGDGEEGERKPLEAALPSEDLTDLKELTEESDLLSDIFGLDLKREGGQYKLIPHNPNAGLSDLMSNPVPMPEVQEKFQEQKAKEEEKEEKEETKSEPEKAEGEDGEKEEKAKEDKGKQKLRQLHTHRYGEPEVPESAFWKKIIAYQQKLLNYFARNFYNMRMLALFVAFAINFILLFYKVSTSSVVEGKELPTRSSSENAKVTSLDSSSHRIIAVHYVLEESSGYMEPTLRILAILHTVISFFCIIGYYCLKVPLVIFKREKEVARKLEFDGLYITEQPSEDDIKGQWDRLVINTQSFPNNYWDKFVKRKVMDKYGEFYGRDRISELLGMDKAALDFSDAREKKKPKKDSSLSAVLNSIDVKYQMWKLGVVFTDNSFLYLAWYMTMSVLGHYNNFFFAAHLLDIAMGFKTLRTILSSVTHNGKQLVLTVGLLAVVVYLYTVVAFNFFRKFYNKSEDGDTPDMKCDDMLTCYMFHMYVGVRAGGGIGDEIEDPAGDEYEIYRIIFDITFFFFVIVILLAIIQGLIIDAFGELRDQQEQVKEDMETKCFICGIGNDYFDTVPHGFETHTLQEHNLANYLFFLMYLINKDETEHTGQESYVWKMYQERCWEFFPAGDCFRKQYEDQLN

RyR2 = RyR2 (Homo sapiens, UniProt Q92736); settings: cited from earlier work
Chain of RyR2 (Q92736 whole entry, species assumed): as the sequence (Q92736 whole entry) above

cardiac SR = cardiac SR (Homo sapiens, UniProt Q92736); settings: cited from earlier work
Chain of cardiac SR (Q92736 whole entry): as above

[2] = target: cardiac ryanodine receptor (RyR2) calcium channel from sheep heart SR vesicles (sheep, UniProt A0ACI6Q5I6 1-4956); test: cell-based or functional assay

## N.N.N.N.N.N.N.N.N.N.N.N.N.N.[Cl-].[Cl-].[Cl-].[Cl-].[Cl-].[Cl-].[O-2].[O-2].[Ru+3].[Ru+3].[Ru+4] [ruthenium red, reference compound]
Cardiac RyR2 channel; 30 μM, end of experiment
  effect on RyR channel: block the channel
[1]; added after activating agents
  effect on Ca2+ release: terminated

## TSAQKAKAEERKRRKMSRGL [SEQ ID NO: 2, 20-mer peptide (Thr671 to Leu690) of the II-III cytoplasmic loop of human skeletal muscle DHPR]
Cardiac RyR2 channel
  bilayer samples with similar activation and inhibition: 8 out of 8
  lowest peptide concentration at which activation of cardiac RyR2 was observed: 1 nM
Cardiac RyR2 channel; +40 mV
  peptide concentration above which channel opening began to decline: above 100 nM
  effect on cardiac RyR2 channel activity: increases and then decreases the activity
Cardiac RyR2 channel; +40 mV and −40 mV, after peptide addition to cis chamber
  frequency of opening: higher frequency of opening
Cardiac RyR2 channel; +40 mV, 10 nM peptide
  normalized mean current: doubled
Cardiac RyR2 channel; +40 mV, 65 nM peptide
  channel activity: increased; also recorded: mostly in the open configuration
Cardiac RyR2 channel; +40 mV, 10 μM peptide
  channel openings: only a few brief channel openings
Cardiac RyR2 channel; +40 mV, 32.5 μM peptide
  channel configuration: mostly in the closed configuration
Cardiac RyR2 channel; +40 mV, between about 10 μM and 50 μM peptide
  normalized mean current at higher peptide concentrations: fell dramatically
Cardiac RyR2 channel; +40 mV, listed as 20-mer peptide
  effect on cardiac RyR2 channel activity: strong inhibition
Cardiac RyR2 channel; −40 mV, 10^−7M cis Ca, versus absence of peptide
  duration of channel openings: prolonged channel openings
Cardiac RyR2 channel; −40 mV
  effect on cardiac RyR2 channel activity: increases the activity
Cardiac RyR2 channel; −40 mV, listed as 20-mer peptide
  effect on cardiac RyR2 channel activity: significant activation
Cardiac RyR2 channel; −40 mV, particularly at 65 nM peptide
  channel open probability (Po): high open probability
Cardiac RyR2 channel; −40 mV, peptide increased to 6.5 μM
  RyR2 channel activity: fell slightly
Cardiac RyR2 channel; −40 mV, within 10 s of adding 65 nM peptide
  channel openings: channel openings increased
[1]
  initial rate of Ca2+ release, peptide alone: small increase
Cardiac RyR2 channels
  enhancement of [3H]ryanodine binding to cardiac RyR2 channels: not to induce Ca^2+ release from cardiac SR, or to enhance [^3H]ryanodine binding
RyR2
  binding to RyR2: binds
Cardiac SR
  induction of Ca2+ release from cardiac SR: not to induce

## TSAQKAKAEERKRRKMARDGL (TSAQKAKAEERKRRKMA[dR]GL) [SEQ ID NO: 10]
[1]
  Ca2+-activated Ca2+ release / caffeine-activated Ca2+ release: also enhanced
  initial rate of Ca2+ release, peptide alone: small increase
  rate of Ca2+ release in the absence of activating Ca2+ or caffeine: marginally enhanced

## TSAQKAKAEERKRRKMARGL [SEQ ID NO: 8]
[1]
  initial rate of Ca2+ release, peptide alone: small increase

## Cn1c(=O)c2c(ncn2C)n(C)c1=O [caffeine, reference compound]
[1]; 2 mM caffeine, no peptide
  initial rate of Ca2+ release: 10 μmoles of Ca^2+ per mg of SR protein per min

## TRKSRLARGQKAKAKSEMRE [Peptide A1S, reference compound]
Cardiac RyR2 channel; 1 μM or 10 μM cis peptide
  bilayers in which channel activity was reduced: 2 out of 2
  cardiac RyR2 channel activity: reduced cardiac RyR2 channel activity

## GLPDKTEEEKSVMAKKLEQK [peptide NB, non-specific peptide; the N-terminal portion of the B segment of the II-III loop, reference compound]
Cardiac RyR2 channel; 1 μM or 10 μM cis peptide, +40 mV or −40 mV
  channel activity: no modified channel activity

## TSAQKAKAEERKRRKMSRDGL (TSAQKAKAEERKRRKMS[dR]GL) [SEQ ID NO: 9]
Cardiac RyR2 channel; 100 nM cis Ca2+
  channel activity (relative mean current): clearly enhanced
Cardiac RyR2 channel; 100 nM cis Ca2+, 10 nM peptide
  channel activity: significant increase in activity
Cardiac RyR2 channel; 100 nM cis Ca2+, 1 and 10 μM peptide, +40 mV
  relative mean current at higher peptide concentrations: fall
Cardiac RyR2 channel; 100 nM cis Ca2+, +40 mV
  peptide concentration at which depression was seen: > 100 nM
Cardiac RyR2 channel; 100 nM cis Ca2+, both positive and negative potentials
  increase in relative mean current: 10-20 fold
Cardiac RyR2 channel; 100 μM cis Ca2+
  channel activity (relative mean current): failed to activate channels; also recorded: clearly depressed
  peptide concentration of maximum effect (depression): 100 nM
  voltage dependence of reduction in channel activity: greater at +40 mV than −40 mV; also recorded: significantly greater at +40 mV
Cardiac RyR2 channel; +40 mV and −40 mV
  frequency of events: corresponding increase
Cardiac RyR2 channel; +40 mV, voltage- and Ca2+-dependent
  effect at high peptide concentrations: blocked the channel pore
Cardiac RyR2 channel; low concentrations
  peptide concentrations enhancing cardiac RyR activity in lipid bilayer: 1 to 10 nM
[1]
  Ca2+-activated Ca2+ release / caffeine-activated Ca2+ release: also enhanced
  initial rate of Ca2+ release, peptide alone: small increase
  rate of Ca2+ release in the absence of activating Ca2+ or caffeine: marginally enhanced

## TSAQKAKAEERKRRKMS[dR]GL [SEQ ID NO: 9 peptide (20-mer of SEQ ID NO: 2 with Arg688 replaced by the D isomer of arginine)]
[2]
  mean closed time at +40 mV (decrease): 80 fold
  mean closed time at -40 mV (decrease): 170 fold
  mean open time at both potentials (increase): 8 fold
  open probability at +40 mV (increase): ~10 fold
  open probability at -40 mV (increase): ~50 fold

## TSAQKAKAEERKRRKMSRGL [20-mer peptide of the II-III cytoplasmic loop of skeletal DHPR alpha-1 subunit (Thr671 to Leu690)]
[2]
  mean current (I'p/I'c) at 10 nM peptide, -40 mV or +40 mV: ~2 fold
  mean current at -40 mV (increase in 50 µM peptide): 4 fold
